Source: US5079237A, “Inclusion complex of nicardipine or its hydrochloride with beta-cyclodextrin and a sustained release pharmaceutical preparation containing the same” (priority 1988, dated 1992)
Where a name gives a salt, the structure may show the parent alone.

Assays:
mice = test: Acute toxicity (LD50) in mice after p.o. administration (Example 6); type: in vivo; conditions: mice, p.o.; for LD50 after 15 days: Litchfield-Wilcoxon, 21600 min
Procedure: (§1) In toxicological tests acute toxicities (LD50) of nicardipine hydrochloride and of its inclusion complex with beta-cyclodextrin were determined in mice and rats. The complex contained 26.8% of nicardipine hydrochloride.
(§2) Albino laboratory mice weighing 18 to 24 g and rats weighing 180 to 240 g of both sexes were used. Nicardipine hydrochloride was administered in the following doses:
(§3) The volume of the administered suspension was in mice 0.2 to 0.4 ml/20 g of body weight and in rats 0.8 to 2.4 ml/200 g of body weight.
(§4) The inclusion complex of nicardipine hydrochloride with beta-cyclodextrin was administered in the following doses:
(§5) mice: 18500 mg/kg of body weight, corresponding to
(§6) 4958 mg of nicardipine/kg of body weight;
(§7) The volume of the administered suspension was in mice 0.6 ml/20 g of body weight and in rats 1.2 to 4.4 ml/200 g of body weight. The animals were left without food for 18 hours before the administration. After the administration the animals were put under observation and the symptoms of poisoning or behaviour changes were recorded for another 15 days. During the tests the animals were given food and water ad libitum.
(§8) The results were statistically evaluated according to the Litchfield-Wilcoxon method (J. Pharmacol. Exp. Therap. 96, 99 (1949)).

[1] = as above; type: in vivo; conditions: mouse, in vivo, po; for mortality at 24 h: read-out: % of perished animals after 24 hrs; for mortality at 360 h: read-out: % of perished animals after 15 days; for LD50 at 360 h: mice, p.o., Litchfield-Wilcoxon, read-out: LD50 after 15 days
Procedure: as §1, §2, §3, §4, §5, §6, §7, §8

[2] = Dissolution rate in artificial biological fluids, Paddle Method, USP XXI (Example 5); type: physicochemical; conditions: for % dissolution: 37° C., mean of three tests
Procedure: Dissolution rates of the complexed and the non-complexed nicardipine and its hydrochloride
40 mg of nicardipine hydrochloride or the equivalent amount of […] of the inclusion complex of nicardipine with beta-cyclodextrin were used.
The dissolution tests were performed in artificial gastric juice of pH 1.2 and in artificial intestinal juices of pH 6.0, 6.5 and 7.4 at the temperature of 37° C.±0.5° C. The volume of the artificial biological fluids was 1000 ml. The rotation speed of the paddle mixer was 100 rpm. The quantities of the dissolved nicardipine hydrochloride in the test samples were determined spectrophotometrically (λmax =240 nm).

[3] = Differential scanning calorimetry: thermal stability (Example 4); type: physicochemical; conditions: DSC
Procedure: Nicardipine hydrochloride melts at 160° C., its thermal decomposition beginning at about 200° C. Beta-cyclodextrin contains combined water, which begins to separate off the sample already at about 40° C. The dehydratation of beta-cyclodextrin is completed at about 100° C. Anhydrous beta-cyclodextrin is stable up to 270° C., when thermal decomposition starts, which becomes intensive at 300° C. The behaviour of the inclusion complex of nicardipine hydrochloride with beta-cyclodextrin at the thermoanalytical assay is quite different. After the initial slight loss of weight at temperatures below 150° C., which can be attributed to the adsorbed moisture, the substance is stable up to about 220° C, when thermal decomposition sets in. […] The DSC scans of nicardipine hydrochloride, beta-cyclodextrin, the physical mixture of nicardipine hydrochloride and beta-cyclodextrin and of the inclusion complex of nicardipine hydrochloride with beta-cyclodextrin clearly indicate the formation of the inclusion complex of nicardipine hydrochloride with beta-cyclodextrin. Thus, the differential scanning calorimetry measurements are in accordance with the powder X-ray diffraction patterns.

rats = test: Acute toxicity (LD50) in rats after p.o. administration (Example 6); type: in vivo; conditions: rats, p.o.; for LD50 after 15 days: Litchfield-Wilcoxon, 21600 min
Procedure: as §1, §2, §3, §4
(§9) rats: 5000 mg/kg of body weight, corresponding to
(§10) 1340 mg of nicardipine/kg of body weight,
(§11) 11100 mg/kg of body weight, corresponding to
(§12) 2975 mg of nicardipine/kg of body weight,
(§13) 18500 mg/kg of body weight, corresponding to
(§14) 4958 mg of nicardipine/kg of body weight.
as §7, §8

[4] = as above; type: in vivo; conditions: rat, in vivo, po; for mortality at 24 h: read-out: % of perished animals after 24 hrs; for mortality at 360 h: read-out: % of perished animals after 15 days; for LD50 at 360 h: rats, p.o., Litchfield-Wilcoxon, read-out: LD50 after 15 days
Procedure: as §1, §2, §3, §4, §9, §10, §11, §12, §13, §14, §7, §8

[5] = cited from earlier work
[6] = Solubility in water of nicardipine (hydrochloride), complexed and non-complexed (Example 3); type: physicochemical; conditions: room temperature, saturated solution
Procedure: Solubility in water Comparative solubility of nicardipine and its hydrochloride resp. alone and of its inclusion complex with beta-cyclodextrin. The concentrations of the dissolved nicardipine and its hydrochloride resp. at room temperature were determined in clear filtrates of the saturated solutions by liquid chromatography using the external standard method.

[7] = 1500 mg/kg, mice F, 1500 mg/kg p.o.
[8] = 1500 mg/kg, mice M, 1500 mg/kg p.o.
[9] = 3000 mg/kg, mice F, 3000 mg/kg p.o.
[10] = 3000 mg/kg, mice M, 3000 mg/kg p.o.
[11] = 4000 mg/kg, mice F, 4000 mg/kg p.o.
[12] = 5000 mg/kg, mice F, 5000 mg/kg p.o.
[13] = 5000 mg/kg, mice M, 5000 mg/kg p.o.
[14] = 6000 mg/kg, mice F, 6000 mg/kg p.o.
[15] = 6000 mg/kg, mice M, 6000 mg/kg p.o.
[16] = 2000 mg/kg, rats M, 2000 mg/kg p.o.
[17] = 2500 mg/kg, rats M, 2500 mg/kg p.o.
[18] = 3000 mg/kg, rats F, 3000 mg/kg p.o.
[19] = 3500 mg/kg, rats M, 3500 mg/kg p.o.
[20] = 4000 mg/kg, rats F, 4000 mg/kg p.o.
[21] = 5000 mg/kg, rats F, 5000 mg/kg p.o.
[22] = 5000 mg/kg, rats M, 5000 mg/kg p.o.
[23] = 6000 mg/kg, rats F, 6000 mg/kg p.o.

For `COC(=O)C1=C(C)NC(C)=C(C(=O)OCCN(C)Cc2ccccc2)C1c1cccc([N+](=O)[O-])c1` (centres unmarked) [nicardipine hydrochloride], the “LD50 after 15 days” value (mice; F) was 3639 (2637-5022) mg/kg, the “LD50 after 15 days” value (mice; M) was 3756 (2815-5012) mg/kg and the recovery of animals (mice) was “recovered after 24 hours”. The symptoms of poisoning (mice) was “dyspnoea and paresis”, the mortality at 24 h [1, 7] was 20% and the mortality at 360 h [1, 7] was 20%. It also gave a mortality at 24 h [1, 8] of 0%, a mortality at 360 h [1, 8] of 0% and a mortality at 24 h [1, 9] of 40%. It also gave a mortality at 360 h [1, 9] of 40%, a mortality at 24 h [1, 10] of 30% and a mortality at 360 h [1, 10] of 40%. It also gave a mortality at 24 h [1, 11] of 30%, a mortality at 360 h [1, 11] of 50% and a mortality at 24 h [1, 12] of 40%. The mortality at 360 h [1, 12] was 70%, the mortality at 24 h [1, 13] was 40% and the mortality at 360 h [1, 13] was 70%. The mortality at 24 h [1, 14] was 90%, the mortality at 360 h [1, 14] was 90% and the mortality at 24 h [1, 15] was 90%. For the same molecule, the mortality at 360 h [1, 15] was 100%, the LD50 at 360 h ([1]; F) was 3640 mg/kg and the LD50 at 360 h ([1]; M) was 3760 mg/kg. For the same molecule, the “dissolution, in words” value ([2]; gastric juice) was “dissolves quickly and completely”, the “% dissolution” value ([2]; gastric juice, pH 1.2, 10 min) was 93.5% and the “% dissolution” value ([2]; gastric juice, pH 1.2, 30 min) was 100.2%. For the same molecule, the “% dissolution” value ([2]; intestinal juice, pH 6.0, 10 min) was 50.2%, the “% dissolution” value ([2]; intestinal juice, pH 6.0, 30 min) was 58.7% and the “% dissolution” value ([2]; intestinal juice, pH 6.5, 10 min) was 35.5%. For the same molecule, the “% dissolution” value ([2]; intestinal juice, pH 6.5, 30 min) was 39.0%, the “% dissolution” value ([2]; intestinal juice, pH 7.4, 10 min) was 1.0% and the “% dissolution” value ([2]; intestinal juice, pH 7.4, 30 min) was 1.3%. For the same molecule, the “onset of thermal decomposition (stable up to)” value [3] was “about 200 °C”, the “LD50 after 15 days” value (rats; F) was 4791 (4206-5458) mg/kg and the “LD50 after 15 days” value (rats; M) was 2900 (1635-5143) mg/kg. The recovery of animals (rats) was “recovered after 24 hours”, the symptoms of poisoning (rats) was “dyspnoea and paresis” and the mortality at 24 h [4, 16] was 40%. It also gave a mortality at 360 h [4, 16] of 40%, a mortality at 24 h [4, 17] of 40% and a mortality at 360 h [4, 17] of 40%. It also gave a mortality at 24 h [4, 18] of 0%, a mortality at 360 h [4, 18] of 0% and a mortality at 24 h [4, 19] of 60%. The mortality at 360 h [4, 19] was 60%, the mortality at 24 h [4, 20] was 10% and the mortality at 360 h [4, 20] was 20%. The mortality at 24 h [4, 21] was 44.4%, the mortality at 360 h [4, 21] was 66.6% and the mortality at 24 h [4, 22] was 80%. The mortality at 360 h [4, 22] was 80%, the mortality at 24 h [4, 23] was 80% and the mortality at 360 h [4, 23] was 80%. For the same molecule, the LD50 at 360 h ([4]; F) was 4790 mg/kg, the LD50 at 360 h ([4]; M) was 2900 mg/kg and the “solubility at higher pH values” ([5]; higher pH values) was “very poor”. The “solubility at low pH values” ([5]; low pH values) was “good” and the solubility [6] was 1500 µg/mL.
